Data on two molecules can be found in patent US11168052B2, “Carbamate derivative compounds, processes for preparing them and their uses” (BIO-PHARM SOLUTIONS CO., LTD., priority 2016, dated 2021).

Assay [1] deals with BIC-induced clonic seizure in mice. Description: Chemical induced seizure model (BIC). In kind it is in vivo, ICR mice. Conditions: Mus musculus, ip. The procedure: Male ICR mice (purchased from Orient Bio Inc. Korea) of body weight 19-26 g were used for these studies. The test materials were administered intraperitoneal route in a volume of 10 ul/g weight. Pharmacological effects of all the test materials were evaluated to compared test groups (n=6) with a control group (n=6). Control group was administrated vehicle, only. The peak time was determined by administration test material's random dose for 0.5 and 1 hour. The time that the most protect was defined peak time and ED50 was determined by other dose administration at peak time. BIC was dissolved in 0.9% saline and administered subcutaneously (s.c.) at its CD97 (convulsive dose 97%) the dose of BIC that produced clonic seizures in 97% into a loose fold of skin in the midline of the neck in a volume of 10 ul/g body weight. The animals were then transferred to observation cages and observed continuously for 30 min. Clonic seizure was elicited in approximately 95% of control group. Protection was defined as complete absence of a clonic seizure over the 30-min observation period. The time that the most protect was defined peak time and ED50 was determined by other dose administration at peak time. The effective dose of compound necessary to protect against seizures to 50% of controls (i.e., ED50) was determined by log probit analysis using Excel 2007 (Microsoft).

Assay [2] concerns Post operation-induced pain model in rats. The assay is described as follows: Antiallodynic activity on post operative-induced pain model (PO), von Frey test. Conditions: dose 200 mg/kg, von Frey paw withdrawal threshold relative to sham. The assay is classed as in vivo, Sprague-Dawley rats. The text has this:
Male Sprague-Dawley rats (Orient Bio, Korea, 230-250g) were habituated at least 3 days before surgery, and were allowed free access to food and water throughout the experimentation. Room temperature and humidity were maintained at 24±2 and 50±10%, respectively. The process of performing the post-operation model's surgery was adapted from Brennan et al (1996). At first, rats with allodynia (threshold valueless than 8 g) were excluded in Pre-von Frey Test. During the post-operation surgery, rats were anesthetized under gaseous anesthesia with 2% isoflurane. The rat was placed, lying face down, on 37 degree warm plate to prevent against hypothermia. The ipsilateral plantar aspect (left side) of the hind paw was prepared in a sterile manner with a 10% povidone-iodine solution. […]
For efficacy measure, the threshold value of group C was assigned 100% efficacy, and the percentage of the threshold values of group A compared to group C (for each different dose level) were calculated as the efficacies. Base on these efficacy values, ED50 was calculated using log fitting. […]
For pain threshold test, all animals were placed in a stainless steel meshed chamber and habituated for 30 min in the test cage. The tactile sensitivity of the ipsilateral hind paw was measured using the up-and-down method (Dixon, 1980) with seven von Frey monofilaments (0.4, 1, 2, 4, 6, 8, and 15 g) using 3 trials. […]

The test system of assay [3] is Lithium-pilocarpine induced seizure in rats. The assay is described as follows: Lithium pilocarpine model (inter). The assay is classed as in vivo, Sprague-Dawley rats. Conditions: Rattus norvegicus. The procedure: (§1) Male Sprague-Dawley rats (purchased from Orient Bio Inc. Korea) of body weight 175 grams were used for these studies and 3 rats per cage were housed for 4-5 days. On the day prior to SE, rats received 127 mg/kg lithium chloride (Sigma, St. Louis, Mo., U.S.A.) intraperitoneally (i.p.). Approximately 18-20 h following this treatment, rats were given an i.p. injection of the concentration capable of inducing 97% intermittent convulsions pilocarpine(Sigma, 30-43 mg/kg). An i.p. injection of 2 mg/kg methyl-scopolamine (Sigma) was administered 30 min prior to pilocarpine to block the effects of the muscarinic agonist on peripheral cholinergic receptors. Test drugs were dissolved in 20% tween80 (Sigma).
The drugs were administered intraperitoneally (i.p.) in a volume of 2 μl/g body weight. Pharmacological effects of all of the test materials were evaluated to compare test groups (n=6) with a control group (n=6). Control group was administered vehicle only. The efficacy was measured 0.5, 1, 2, or 4 hours after the administration of the test material. The time point that the most animals were protected was defined as peak time and the ED50 was determined at peak time. The animals were then transferred to observation cages and observed continuously for 90 min Seizure was elicited in approximately 95% of the control group. […]

The test system is the same in assay [4]. Description: Lithium-pilocarpine induced epilepsy test (LI-PILO), prevention test. The assay is classed as in vivo, Sprague-Dawley rats. The method, then: as §1
The drugs were administered intraperitoneally (i.p.) in a volume of 2 μl/g body weight. Pharmacological effects of all of the test materials were evaluated to compare test groups (n=6) with a control group (n=6). Control group was administered vehicle only. The efficacy was measured 0.5, 1, 2, or 4 hours after the administration of the test material. The time point that the most animals were protected was defined as peak time and the ED50 was determined at peak time. The animals were then transferred to observation cages and observed continuously for 90 min Seizure was elicited in approximately 95% of the control group. Protection was defined as complete absence of seizure grade 3-5 (Racine scale; Racine, 1972) over the 90-min observation period. The effective dose of the compound necessary to protect 50% of the animals against seizures compared to controls (i.e., ED50) was determined by a curve fitting program (Excel 2007, Microsoft).

The subject of assay [5] is PTZ (Pentylenetetrazol)-induced clonic seizure in mice. The assay is described as follows: Anti-epilepsy activity, scPTZ test in mouse. The assay is classed as in vivo, ICR mice. Conditions: ip. An excerpt:
In this experiment, each test compound sample was formulated as described in Biological Experimental Example 1, and administered intraperitoneally to the test animals (mice; ICR or Rat; SD); Experimental animals, male ICR mice and male SD rats, were purchased from OrientBio or Nara biotech, Korea, and housed 4-5 mice per a cage for 4-5 days. The range of mice body weight was used between 19 and 26 grams and range of rats body weight was used between 100 and 130 grams. After Peak time (0.5, 1, 2 and 4 hr) from the administration, PTZ (Pentylenetetrazol) was administered subcutaneously in the concentration capable of inducing 97% intermittent convulsions (mice: 100-110 mg/kg?bw, 10 μl/g, or rats: 90-110 mg/kg?bw, 2 μl/g). If clonic seizure was not observed for at least 30 minutes in the PTZ administered animal, it can be considered that the test compound has anti-epilepsy activity. The median effective dose (ED50) is determined using 6 animals per a concentration (total three different concentrations), and calculated by Litchfield and Wicoxon log-probit method which is a dose-response relationship.

In the case of `NC(=O)O[C@@H]1CCc2cccc(Cl)c2[C@@H]1O` [Example 1, (1S, 2R)-8-chloro-1-hydroxy-1,2,3,4-tetrahydronaphthalen-2-yl carbamate], the ED50 in assay [1] came out at 28.9 mg/kg; in assay [3] it was 24.5 mg/kg; in assay [4] (Rattus norvegicus, ip, prevention, read-out: Lithium pilocarpine model (pre) ED50), 22 mg/kg; in assay [5] it was 12.5 mg/kg. For the same molecule, in assay [2], the “Post Operation Efficacy (% of sham threshold)” value is 200 (29.8%).
In the case of `NC(=O)O[C@@H]1c2c(Cl)cccc2CC[C@@H]1O` [Example 19, (1R, 2S)-8-chloro-2-hydroxy-1,2,3,4-tetrahydronaphthalen-1-yl carbamate], the “Lithium pilocarpine model (pre) efficacy %” value in assay [4] (i.p., dose 50 mg/kg) amounted to 50%.
